Measurements published in patent USRE38551E1, “Anticonvulsant enantiomeric amino acid derivatives” (priority 1996, dated 2004).
Like-named read-outs stand apart in the source and are kept apart here. Marks after values point to notes of the source that are not given here.

How the values were obtained:
[1] = tested on: motor impairment (rotorod test); assay: rotorod neurologic toxicity test, mice (ip); assay type: in vivo; details: mice, ip, rotorod test, at time of peak effect
Source text: Compounds were screened for anticonvulsant activity in both male albino Carthworth Farms No. 1 mice (ip route) and male albino Sprague Dawley rats [oral (po) route]. Activity was established using the electrical (maximal electroshock or MES) test. In the MES test, a drop of electrolyte solution with anesthetic (0.5% butacaine hemisulfate in 0.9% sodium chloride) was used in the eyes of the animals prior to positioning the corneal electrodes and delivery of current. […] Protection endpoints were defined as the abolition of the hind limb tonic extensor component of the induced seizure. In mice, effects of compounds on forced spontaneous motor activity were determined using the rotorod test. […] Normally under these conditions, mice maintain their balance almost indefinitely. In rats, motor impairment is assessed by observing for overt evidence of ataxia, abnormal gait and stance, and/or loss of placing response and muscle tone. In the mouse identification screening study all compounds were given at three dose levels (30, 100, 300 mg/kg) and two time periods (0.5 hours, 4 hours). Typically, in the MES seizures test one animal was tested at 30 mg/kg and 300 mg/kg, and three animals at 100 mg/kg. In the rotored toxicity test four animals were tested at 30 mg/kg, and 300 mg/kg, and eight animals at 100 mg/kg.
The quantitative determination of the median effective (ED50) and toxic doses (TD50) was conducted at previously calculated times of peak effect. Groups of at least eight animals were tested using different doses of test compound until at least two points wee determined between 100 and 0% protection and minimal motor impairment. The dose of candidate substance required to produce the defined end-point in 50% of the animals in each test and the 95% confidence interval was calculated.

[2] = tested on: Crl:CD BR Charles River rats
Experimental: II. Five groups of Crl:CD® BR Charles River rats were each exposed to BAMP or a control substance (0.5% methylcellulose [400 Cps] aqueous solution in distilled water) according to the following dosage schedule:
Group 1—vehicle control (10 males, 10 females), 0 mg/kg/day
Group 2—low (10 males, 10 females), 10 mg/kg/day
Group 3—mid low (10 males, 10 females), 30 mg/kg/day
Group 4—mid high (10 males, 10 females), 100 mg/kg/day
Group 5—high (10 males, 10 females), 300 mg/kg/day
Exposure was by oral gavage, once daily, for a period of at least 30 consecutive days, after which all animals were sacrificed for pathologic evaluation.
All animals were weighed once prior to initiation of dosing and weekly thereafter. Food-fasted (overnight) blood samples for clinical chemistry and hematology were collected at termination. Blood samples were collected from the orbital venous plexus using carbon dioxide (mixed with oxygen) as an anesthetic.
All animals were sacrificed, at the appropriate time, by exsanguination, under barbiturate anesthesia, and all were subjected to a necropsy examination.
Clinical observations were reviewed at necropsy, and all grossly observed abnormalities were entered directly into the computerized data collection system. Adrenals, brain with brainstem, heart, kidneys, liver, ovaries, pituitary, testes with epididymides, and thyroid with parathyroids were weighted from each animal. The pituitary and thyroid with parathyroids were weighed after fixation and all of the other organs were weighed at the time of necropsy.
As required by the protocol, histologic evaluations were conducted on liver only from all animals of Groups 1 (control) and 5 (high). All histologic findings were entered directly into the computerized data capture system. Lesions were graded as to relative severity or degree of involvement (1=minimal, 2=slight, 3=moderate, 4=moderately severe, 5=severe). In general, minimal represents the least consistently recognizable degree of any given histoniorphologic alteration, while severe would represent the most extreme degree reasonably possible, with the other three grades occupying a continuum between the two extremes. The grades are subjective, comparative evaluations, based on morphology alone and are not intended by themselves to imply any degree of functional impairment.

[3] = female, group 2, 10 mg/kg/day, 30 days oral
[4] = female, group 3, 30 mg/kg/day, 30 days oral
[5] = female, group 4, 100 mg/kg/day × 30 days oral
[6] = female, group 4, 100 mg/kg/day, 30 days oral
[7] = female, group 5, 300 mg/kg/day × 30 days oral
[8] = female, group 5, 300 mg/kg/day, 30 days oral
[9] = male, group 2, 10 mg/kg/day, 30 days oral
[10] = male, group 3, 30 mg/kg/day, 30 days oral
[11] = male, group 4, 100 mg/kg/day × 30 days oral
[12] = male, group 4, 100 mg/kg/day, 30 days oral
[13] = male, group 5, 300 mg/kg/day × 30 days oral
[14] = male, group 5, 300 mg/kg/day, 30 days oral

## CC(=O)NC(C)C(=O)NCc1ccccc1 (racemic) [compound 1, N-Acetyl-D,L-alanine-N′-benzylamide]
[1]
  tox, TD50: 454 [0.5] mg/kg

## COC[C@@H](NC(C)=O)C(=O)NCc1ccccc1 [Ex. 1, 2, (R)-N-Benzyl-2-Acetamide-3-methoxypropionamide]
[2]; [3]
  ESOPHAGUS (ES) NOT REMARKABLE (number of animals): 10
  HEART (HT) ENLARGED (number of animals affected): 0
  HEART (HT) NOT REMARKABLE (number of animals): 10
  LIVER (LI) ENLARGED (number of animals affected): 0
  LIVER (LI) NOT REMARKABLE (number of animals): 10
  LIVER ORGAN-TO-BODY WT, mean: 3.237%
  LUNG (LU) NOT REMARKABLE (number of animals): 10
  PARATHYROID (PT) NOT REMARKABLE (number of animals): 10
  SPLEEN (SP) NOT REMARKABLE (number of animals): 10
  TERMINAL BODY WT, mean: 214.1 g
  TRACHEA (TR) NOT REMARKABLE (number of animals): 10
[2]; [4]
  ESOPHAGUS (ES) NOT REMARKABLE (number of animals): 10
  HEART (HT) ENLARGED (number of animals affected): 0
  HEART (HT) NOT REMARKABLE (number of animals): 10
  LIVER (LI) ENLARGED (number of animals affected): 0
  LIVER (LI) NOT REMARKABLE (number of animals): 10
  LIVER ORGAN-TO-BODY WT, mean: 3.244%
  LUNG (LU) NOT REMARKABLE (number of animals): 10
  PARATHYROID (PT) NOT REMARKABLE (number of animals): 10
  SPLEEN (SP) NOT REMARKABLE (number of animals): 10
  TERMINAL BODY WT, mean: 207.0 g
  TRACHEA (TR) NOT REMARKABLE (number of animals): 10
[2]; [5]
  LIVER ORGAN-TO-BODY WT, mean: 3.608%
  TERMINAL BODY WT, mean: 218.3 g
[2]; [6]
  ESOPHAGUS (ES) NOT REMARKABLE (number of animals): 10
  HEART (HT) ENLARGED (number of animals affected): 0
  HEART (HT) NOT REMARKABLE (number of animals): 10
  LIVER (LI) ENLARGED (number of animals affected): 0
  LIVER (LI) NOT REMARKABLE (number of animals): 10
  LUNG (LU) NOT REMARKABLE (number of animals): 10
  PARATHYROID (PT) NOT REMARKABLE (number of animals): 10
  SPLEEN (SP) NOT REMARKABLE (number of animals): 10
  TRACHEA (TR) NOT REMARKABLE (number of animals): 10
[2]; [7]
  LIVER ORGAN-TO-BODY WT, mean: 3.832* %
  TERMINAL BODY WT, mean: 205.9 g
[2]; [8]
  ESOPHAGUS (ES) NOT REMARKABLE (number of animals): 10
  HEART (HT) ENLARGED (number of animals affected): 0
  HEART (HT) NOT REMARKABLE (number of animals): 10
  LIVER (LI) ENLARGED (number of animals affected): 0
  LIVER (LI) NOT REMARKABLE (number of animals): 10
  LUNG (LU) NOT REMARKABLE (number of animals): 10
  PARATHYROID (PT) NOT REMARKABLE (number of animals): 10
  SPLEEN (SP) NOT REMARKABLE (number of animals): 10
  TRACHEA (TR) NOT REMARKABLE (number of animals): 10
[2]; [9]
  ESOPHAGUS (ES) NOT REMARKABLE (number of animals): 10
  HEART (HT) ENLARGED (number of animals affected): 0
  HEART (HT) NOT REMARKABLE (number of animals): 10
  LIVER (LI) ENLARGED (number of animals affected): 0
  LIVER (LI) NOT REMARKABLE (number of animals): 10
  LIVER ORGAN-TO-BODY WT, mean: 3.248%
  LUNG (LU) NOT REMARKABLE (number of animals): 10
  PARATHYROID (PT) NOT REMARKABLE (number of animals): 10
  SPLEEN (SP) NOT REMARKABLE (number of animals): 10
  TERMINAL BODY WT, mean: 342.0 g
  TRACHEA (TR) NOT REMARKABLE (number of animals): 10
[2]; [10]
  ESOPHAGUS (ES) NOT REMARKABLE (number of animals): 10
  HEART (HT) ENLARGED (number of animals affected): 0
  HEART (HT) NOT REMARKABLE (number of animals): 10
  LIVER (LI) ENLARGED (number of animals affected): 0
  LIVER (LI) NOT REMARKABLE (number of animals): 10
  LIVER ORGAN-TO-BODY WT, mean: 3.278%
  LUNG (LU) NOT REMARKABLE (number of animals): 10
  PARATHYROID (PT) NOT REMARKABLE (number of animals): 10
  SPLEEN (SP) NOT REMARKABLE (number of animals): 10
  TERMINAL BODY WT, mean: 349.9 g
  TRACHEA (TR) NOT REMARKABLE (number of animals): 10
[2]; [11]
  LIVER ORGAN-TO-BODY WT, mean: 3.351%
  TERMINAL BODY WT, mean: 351.5 g
[2]; [12]
  ESOPHAGUS (ES) NOT REMARKABLE (number of animals): 10
  HEART (HT) ENLARGED (number of animals affected): 0
  HEART (HT) NOT REMARKABLE (number of animals): 10
  LIVER (LI) ENLARGED (number of animals affected): 0
  LIVER (LI) NOT REMARKABLE (number of animals): 10
  LUNG (LU) NOT REMARKABLE (number of animals): 10
  PARATHYROID (PT) NOT REMARKABLE (number of animals): 10
  SPLEEN (SP) NOT REMARKABLE (number of animals): 10
  TRACHEA (TR) NOT REMARKABLE (number of animals): 10
[2]; [13]
  LIVER ORGAN-TO-BODY WT, mean: 4.016* %
  TERMINAL BODY WT, mean: 358.8 g
[2]; [14]
  ESOPHAGUS (ES) NOT REMARKABLE (number of animals): 10
  HEART (HT) ENLARGED (number of animals affected): 0
  HEART (HT) NOT REMARKABLE (number of animals): 10
  LIVER (LI) ENLARGED (number of animals affected): 1
  LIVER (LI) NOT REMARKABLE (number of animals): 9
  LUNG (LU) NOT REMARKABLE (number of animals): 10
  PARATHYROID (PT) NOT REMARKABLE (number of animals): 10
  SPLEEN (SP) NOT REMARKABLE (number of animals): 10
  TRACHEA (TR) NOT REMARKABLE (number of animals): 10
[2]; rats, 30 days chronic dosing
  multiple of anti-convulsant dose causing no adverse histologic effects: 76.9
